# Reference: patent US20240090505A1, “MULTI-SOLVENT PESTICIDAL COMPOSITIONS INCLUDING SULFOXIMINE” (CLARKE MOSQUITO CONTROL PRODUCTS, INC., priority 2020, published 2024)
# Tested on: Culex sp. mosquitos
# Experiment: Laboratory test of samples with and without surfactant (Pluronic L92), knockdown and mortality
# Format: in vivo
# Conditions: propylene carbonate:tributyl O-acetylcitrate 1:1
# Procedure: Various amounts of different surfactants were evaluated to determine possible impacts on efficacy. In one set of trials, different amounts of sulfoxaflor were tested with and without a surfactant (Pluronic L92 from BASF).
smiles,measurement,setting,value
"CC(c1ccc(C(F)(F)F)nc1)S(C)(=O)=NC#N (stereo not drawn) [Sulfoxaflor, sulfoxaflor]",1-hour knockdown,"0.5 wt% sulfoxaflor, 20 wt% surfactant (Pluronic L92)",2%
same,1-hour knockdown,"0.5 wt% sulfoxaflor, no surfactant",0%
same,1-hour knockdown,"1 wt% sulfoxaflor, no surfactant",18%
